According to US20050101595A1, “N-containing cycloalkyl-substituted amino-thiazole derivatives and pharmaceutical compositions for inhibiting cell proliferation and methods for their use” (PFIZER INC., priority 2003, published 2005):
Structures can show the parent of a compound that is named as a salt. Where two headings read alike, the source gives them in different places. Values belong to the molecule of their own block, whether it stands above or below them.

Experiments:
[1] = target: human CDK4 and genetically truncated (1-264) cyclin D3 (Homo sapiens, UniProt P11802); experiment: Inhibition of CDK4/Cyclin D Retinoblastoma Kinase Activity; format: biochemical; conditions: for Ki: apparent Ki, CDK4/truncated cyclin D3, Rb fragment substrate, 25 μM ATP
In short: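 Read-out: 32P/33P incorporation into Rb fragment (386-928) captured on nitrocellulose, phosphorimager. Enzyme 5 nM CDK4/cyclin D3(1-264) from insect cells; ATP 25 μM, pH 7.4, 30 °C, 20 min (60 min for tight binders). Ki from competitive fits.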

HCT-116 cell line = experiment: Inhibition of cell growth, tetrazolium salt (MTT) assay; format: cell-based; conditions: for IC50: Homo sapiens, HCT-116, 120 h, MTT, three to five days, read-out: HCT-116 IC50; for HCT-116 % Inhibition at 0.25 μM: 0.25 μM compound
In short: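 Cells in McCoy's 5A medium were left 4 h, then given graded compound concentrations in 0.5% (v/v) DMSO and incubated three to five days at 37° C (5% CO2). MTT was added to 0.2 mg/mL for 4 h more; DMSO-solubilized formazan was read at 540 nm against 0.5% DMSO-only controls.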

CDK2/Cyclin A = CDK2/Cyclin A (Homo sapiens, UniProt P24941); experiment: Inhibition of CDK2/Cyclin A Retinoblastoma Kinase Activity; format: biochemical; conditions: for Ki: apparent Ki, CDK2/proteolyzed cyclin A, Rb fragment substrate, 25 μM ATP; for CDK2 % Inhibition At 0.03 μM: Table 2
In short: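 Human CDK2, baculovirus/insect-cell expressed, complexed with proteolyzed cyclin A (10 nM or 19 nM CDK2) phosphorylates an Rb fragment with 25 μM [32P/33P]ATP at pH 7.4, 30° C, for 60 or 75 minutes under initial-rate conditions. Filter-captured radioactivity is read by phosphorimager; apparent Ki from competitive-inhibition fits.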

[2] = 0.1 μM compound, HCT-116, Table 3
[3] = 0.1 μM compound, HCT-116, Table 4

Chain of human CDK4 and genetically truncated (1-264) cyclin D3 (P11802 whole entry, the tested form may be a part): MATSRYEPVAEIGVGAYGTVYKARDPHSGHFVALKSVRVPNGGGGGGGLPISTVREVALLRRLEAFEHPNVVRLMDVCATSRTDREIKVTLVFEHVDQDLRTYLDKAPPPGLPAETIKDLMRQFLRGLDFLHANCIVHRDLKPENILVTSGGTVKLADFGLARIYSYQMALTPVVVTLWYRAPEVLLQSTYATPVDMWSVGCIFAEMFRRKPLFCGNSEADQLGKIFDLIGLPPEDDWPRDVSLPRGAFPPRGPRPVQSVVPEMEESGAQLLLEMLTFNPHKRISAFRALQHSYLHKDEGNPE
Chain of human CDK4 and genetically truncated (1-264) cyclin D3 (P30281 1-264 partner): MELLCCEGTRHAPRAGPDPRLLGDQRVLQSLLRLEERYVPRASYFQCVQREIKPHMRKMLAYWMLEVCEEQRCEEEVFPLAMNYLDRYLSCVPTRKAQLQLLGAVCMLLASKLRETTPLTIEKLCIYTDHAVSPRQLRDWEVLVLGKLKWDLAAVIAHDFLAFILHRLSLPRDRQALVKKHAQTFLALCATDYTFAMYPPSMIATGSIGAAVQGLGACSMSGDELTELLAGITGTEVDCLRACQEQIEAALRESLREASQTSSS

Ki [1]: 1.1 nM
IC50 (HCT-116 cell line; first HCT-116 column (c4)): 120 nM
IC50 (HCT-116 cell line; second HCT-116 column (c5)): 300 nM
Ki (CDK2/Cyclin A): 1.2 nM
SMILES: Nc1nc(NC2CCN(S(=O)(=O)c3cnc(OCCN4CCOCC4)nc3)CC2)sc1C(=O)c1c(F)cccc1F [Example H22, (4-Amino-2-{1-[2-(2-morpholin4-yl-ethoxy)-pyrimidine-5-sulfonyl]-piperidin-4-ylamino}-thiazol-5-yl)-(2,6-difluoro-phenyl)-methanone Trifluoroacetic Acid Salt]

CDK4 % Inhibition at 0.03 μM ([1]; 0.03 μM compound, Table 2): 15%
CDK2 % Inhibition At 0.03 μM (CDK2/Cyclin A; 0.03 μM compound): 37%
SMILES: COc1ccc(NC(=O)N2CCC(Nc3nc(N)c(C(=O)c4c(F)cccc4F)s3)CC2)c(OC)c1 [Example O8]
HCT-116 % Inhibition at 0.25 μM (HCT-116 cell line; HCT-116, Table 2): 0%

CDK4 % Inhibition at 0.03 μM ([1]; 0.03 μM compound, Table 3): 33%
CDK2 % Inhibition at 0.03 μM (CDK2/Cyclin A; 0.03 μM compound, Table 3): 17%
SMILES: COc1ccc(C)cc1S(=O)(=O)N1CCC(Nc2nc(N)c(C(=O)c3c(F)cccc3F)s2)CC1 [Example P59]
HCT-116 % Inhibition at 0.1 μM (HCT-116 cell line; [2]): 19%
HCT-116 % Inhibition at 0.25 μM (HCT-116 cell line; HCT-116, Table 3): 24%

CDK4 % Inhibition at 0.03 μM ([1]; 0.03 μM compound, Table 4): 17%
CDK2 % Inhibition at 0.03 μM (CDK2/Cyclin A; 0.03 μM compound, Table 4): −19%
SMILES: CC(C)=CC(=O)N1CCC(Nc2nc(N)c(C(=O)c3c(F)cccc3F)s2)CC1 [Example Q44]
HCT-116 % Inhibition at 0.1 μM (HCT-116 cell line; [3]): 0%
HCT-116 % Inhibition at 0.25 μM (HCT-116 cell line; HCT-116, Table 4): 30%

CDK4 % Inhibition at 0.03 μM ([1]; 0.03 μM compound, Table 3): 74%
CDK2 % Inhibition at 0.03 μM (CDK2/Cyclin A; 0.03 μM compound, Table 3): 73%
SMILES: COc1ccc(S(=O)(=O)N2CCC(Nc3nc(N)c(C(=O)c4c(F)cccc4F)s3)CC2)cc1OC [Example P38]
HCT-116 % Inhibition at 0.1 μM (HCT-116 cell line; [2]): 15%
HCT-116 % Inhibition at 0.25 μM (HCT-116 cell line; HCT-116, Table 3): 35%

CDK4 % Inhibition at 0.03 μM ([1]; 0.03 μM compound, Table 2): 11%
CDK2 % Inhibition At 0.03 μM (CDK2/Cyclin A; 0.03 μM compound): 24%
SMILES: CCOC(=O)C(C)NC(=O)N1CCC(Nc2nc(N)c(C(=O)c3c(F)cccc3F)s2)CC1 (centres unmarked) [Example O72]
HCT-116 % Inhibition at 0.25 μM (HCT-116 cell line; HCT-116, Table 2): 62%

CDK4 % Inhibition at 0.03 μM ([1]; at 0.03 μM): 44%
CDK2 % Inhibition at 0.03 μM (CDK2/Cyclin A; at 0.03 μM): 24%
SMILES: CCCCCc1ccc(C(=O)N2CCC(Nc3nc(N)c(C(=O)c4c(F)cccc4F)s3)CC2)cc1 [Example R158]
HCT-116 % Inhibition at 0.1 μM (HCT-116 cell line; HCT-116 cells, at 0.1 μM): 0%
HCT-116 5 Inhibition at 0.25 μM (HCT-116 cell line; HCT-116 cells): 41

Ki [1]: 0.52 nM
IC50 (HCT-116 cell line; first HCT-116 column (c4)): 180 nM
IC50 (HCT-116 cell line; second HCT-116 column (c5)): 2500 nM
Ki (CDK2/Cyclin A): 1.5 nM
SMILES: CC(C)NCCOc1ccc(S(=O)(=O)N2CCC(Nc3nc(N)c(C(=O)c4c(F)cccc4F)s3)CC2)cn1 [Example H19, (4-Amino-2-{1-[6-(2-isopropylamino-ethoxy)-pyddine-3-sulfonyl]-piperidin-4-ylamino}-thiazol-5-yl)-(2,6-difluoro-phenyl)-methanone Hydrochloride Salt]

CDK4 % Inhibition at 0.03 μM ([1]; 0.03 μM compound, Table 4): 15%
CDK2 % Inhibition at 0.03 μM (CDK2/Cyclin A; 0.03 μM compound, Table 4): −13%
SMILES: CCOC(=O)N1CCC(Nc2nc(N)c(C(=O)c3c(F)cccc3F)s2)CC1 [Example Q8]
HCT-116 % Inhibition at 0.1 μM (HCT-116 cell line; [3]): 6%
HCT-116 % Inhibition at 0.25 μM (HCT-116 cell line; HCT-116, Table 4): 45%

CDK4 % Inhibition at 0.03 μM ([1]; at 0.03 μM): 58%
CDK2 % Inhibition at 0.03 μM (CDK2/Cyclin A; at 0.03 μM): 37%
SMILES: CC(C)(C)c1ccc(C(=O)N2CCC(Nc3nc(N)c(C(=O)c4c(F)cccc4F)s3)CC2)cc1 [Example R153]
HCT-116 % Inhibition at 0.1 μM (HCT-116 cell line; HCT-116 cells, at 0.1 μM): 0%
HCT-116 5 Inhibition at 0.25 μM (HCT-116 cell line; HCT-116 cells): 44

Ki [1]: 2 nM
IC50 (HCT-116 cell line; first HCT-116 column (c4)): 790 nM
IC50 (HCT-116 cell line; second HCT-116 column (c5)): > 5000 nM
Ki (CDK2/Cyclin A): 0.8 nM
SMILES: COC(=O)CCc1ccc(S(=O)(=O)N2CCC(Nc3nc(N)c(C(=O)c4c(F)cccc4F)s3)CC2)cc1 [Example F46]

CDK4 % Inhibition at 0.03 μM ([1]; 0.03 μM compound, Table 3): 52%
CDK2 % Inhibition at 0.03 μM (CDK2/Cyclin A; 0.03 μM compound, Table 3): 43%
SMILES: Nc1nc(NC2CCN(S(=O)(=O)c3ccc(F)cc3Cl)CC2)sc1C(=O)c1c(F)cccc1F [Example P55]
HCT-116 % Inhibition at 0.1 μM (HCT-116 cell line; [2]): 20%
HCT-116 % Inhibition at 0.25 μM (HCT-116 cell line; HCT-116, Table 3): 25%

CDK4 % Inhibition at 0.03 μM ([1]; 0.03 μM compound, Table 2): 12%
CDK2 % Inhibition At 0.03 μM (CDK2/Cyclin A; 0.03 μM compound): 30%
SMILES: Nc1nc(NC2CCN(C(=O)NCCCl)CC2)sc1C(=O)c1c(F)cccc1F [Example O32]
HCT-116 % Inhibition at 0.25 μM (HCT-116 cell line; HCT-116, Table 2): 99%

Ki [1]: 0.41 nM
IC50 (HCT-116 cell line; first HCT-116 column (c4)): 140 nM
IC50 (HCT-116 cell line; second HCT-116 column (c5)): 2000 nM
Ki (CDK2/Cyclin A): 1.8 nM
SMILES: CN(C)CCOc1ncc(S(=O)(=O)N2CCC(Nc3nc(N)c(C(=O)c4c(F)cccc4F)s3)CC2)cn1 [Example H24, (4-Amino-2-{1-[2-(2-dimethylamino-ethoxy)-pyrimidine-5-sulfonyl]-piperidin-4-ylamino}-thiazol-5-yl)-(2,6-difluoro-phenyl)-methanone Trifluoroacetic Acid Salt]
